The results in this text go back to patent publication US20200060276A1, “THIAZOLE COMPOUND AND HERBICIDE” (OAT Agrio Co., Ltd., priority 2017, published 2020).

SMILES strings stand for the structures.

Common to all, as to format: in vivo
One assay has as its system Scirpus juncoides. The assay can be described thus: Test for Herbicidal Effect in Flooding Treatment (#1), SCIJU. To be noted: flooding treatment at seeding, dose 2 kg/ha, visual observation on day 21. Summed up: (§1)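 Visual scores from 0 (<10% inhibition) to 5 (≥90% or complete withering) were taken 21 days after treatment of glasshouse-grown plants. Seeds were sown in soil flooded for 24 h beforehand, and compound was applied dropwise onto the surface at 2 kg/ha as an acetone solution diluted in water with Tween 80.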

The test system of assay [1] is Echinochloa crus-galli (L.) P. Beauv. var. formosensis Ohwi. The assay can be described thus: Test for Herbicidal Effect in Flooding Treatment (#2), ECHDG at 2-2.5 leaf stage. To be noted: flooding treatment at 2-2.5 leaf stage, dose 0.2 kg/ha, visual observation on day 21. Summed up: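 Flooded muddy soil was seeded with the weed, and at 2–2.5 leaf stage compound in acetone/Tween 80 water was dropped on the water surface at 0.2 kg/ha. Plants were kept in a glasshouse and scored visually on day 21 from 0 (<10% growth inhibition) to 5 (≥90% or complete withering).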

For assay [2] the test system is unchanged. Nature of the assay: Test for Herbicidal Effect in Flooding Treatment (#1), ECHDG. To be noted: flooding treatment at seeding, dose 2 kg/ha, visual observation on day 21. Summed up: as §1
Another assay deals with Cyperus microiria. Nature of the assay: Test for Herbicidal Effect in Flooding Treatment (#1), CYMIC. To be noted: flooding treatment at seeding, dose 2 kg/ha, visual observation on day 21. Summed up: as §1
The test system of the next assay is Monochoria vaginalis. Nature of the assay: Test for Herbicidal Effect in Flooding Treatment (#1), MONVA. To be noted: flooding treatment at seeding, dose 2 kg/ha, visual observation on day 21. Summed up:
as §1

In the case of `CCOc1ccc(CS(=O)(=O)c2ncc(Cl)s2)c(C(F)(F)F)c1` [Compound 1C-94], in the assay with Scirpus juncoides, the “SCIJU #1 herbicidal effect (growth inhibition grade)” value was 5 (Growth inhibition effect is equal to or greater than 90%, or complete withering is achieved). The “ECHDG (2-2.5L) #2 herbicidal effect (growth inhibition grade)” value in assay [1] is 5 (Growth inhibition effect is equal to or greater than 90%, or complete withering is achieved). For the same compound, the “ECHDG #1 herbicidal effect (growth inhibition grade)” value in assay [2] is 5 (Growth inhibition effect is equal to or greater than 90%, or complete withering is achieved). The “CYMIC #1 herbicidal effect (growth inhibition grade)” value in the assay on Cyperus microiria was 5 (Growth inhibition effect is equal to or greater than 90%, or complete withering is achieved). In addition, the “MONVA #1 herbicidal effect (growth inhibition grade)” value in the assay with Monochoria vaginalis was 5 (Growth inhibition effect is equal to or greater than 90%, or complete withering is achieved).
For the compound `COc1ccc(CS(=O)(=O)c2ncc(Cl)s2)c(F)c1` [Compound 1C-88], the “SCIJU #1 herbicidal effect (growth inhibition grade)” value in the assay on Scirpus juncoides was 5 (Growth inhibition effect is equal to or greater than 90%, or complete withering is achieved). The “ECHDG (2-2.5L) #2 herbicidal effect (growth inhibition grade)” value in assay [1] was 4 (Growth inhibition effect is equal to or greater than 70%, and less than 90%). For the same compound, the “ECHDG #1 herbicidal effect (growth inhibition grade)” value in assay [2] was 5 (Growth inhibition effect is equal to or greater than 90%, or complete withering is achieved). For the same compound, the “CYMIC #1 herbicidal effect (growth inhibition grade)” value with Cyperus microiria is on record as 5 (Growth inhibition effect is equal to or greater than 90%, or complete withering is achieved). In the assay on Monochoria vaginalis, the “MONVA #1 herbicidal effect (growth inhibition grade)” value is 5 (Growth inhibition effect is equal to or greater than 90%, or complete withering is achieved).
Regarding `CCOc1cc(C)c(Cl)c(C)c1CS(=O)(=O)c1ncc(Cl)s1` [Compound 1C-35], the “SCIJU #1 herbicidal effect (growth inhibition grade)” value in the assay with Scirpus juncoides is given as 5 (Growth inhibition effect is equal to or greater than 90%, or complete withering is achieved). Further, the “ECHDG (2-2.5L) #2 herbicidal effect (growth inhibition grade)” value in assay [1] is on record as 5 (Growth inhibition effect is equal to or greater than 90%, or complete withering is achieved). The “ECHDG #1 herbicidal effect (growth inhibition grade)” value in assay [2] is given as 5 (Growth inhibition effect is equal to or greater than 90%, or complete withering is achieved). Besides, the “CYMIC #1 herbicidal effect (growth inhibition grade)” value in the assay with Cyperus microiria is reported as 5 (Growth inhibition effect is equal to or greater than 90%, or complete withering is achieved). For the same compound, the “MONVA #1 herbicidal effect (growth inhibition grade)” value with Monochoria vaginalis is given as 5 (Growth inhibition effect is equal to or greater than 90%, or complete withering is achieved).
Turning to `COc1cccc(CS(=O)(=O)c2ncc(Cl)s2)c1` [Compound 1C-65], in the assay on Scirpus juncoides, the “SCIJU #1 herbicidal effect (growth inhibition grade)” value was 5 (Growth inhibition effect is equal to or greater than 90%, or complete withering is achieved). For the same compound, the “ECHDG (2-2.5L) #2 herbicidal effect (growth inhibition grade)” value in assay [1] is given as 5 (Growth inhibition effect is equal to or greater than 90%, or complete withering is achieved). The “ECHDG #1 herbicidal effect (growth inhibition grade)” value in assay [2] was 5 (Growth inhibition effect is equal to or greater than 90%, or complete withering is achieved). The “CYMIC #1 herbicidal effect (growth inhibition grade)” value with Cyperus microiria is reported as 5 (Growth inhibition effect is equal to or greater than 90%, or complete withering is achieved). Besides, in the assay with Monochoria vaginalis, the “MONVA #1 herbicidal effect (growth inhibition grade)” value is listed as 5 (Growth inhibition effect is equal to or greater than 90%, or complete withering is achieved).
As to `COc1cccc(CS(=O)(=O)c2ncc(Cl)s2)c1Cl` [Compound 1C-66], the “SCIJU #1 herbicidal effect (growth inhibition grade)” value with Scirpus juncoides was 5 (Growth inhibition effect is equal to or greater than 90%, or complete withering is achieved). Further, in assay [1], the “ECHDG (2-2.5L) #2 herbicidal effect (growth inhibition grade)” value is 4 (Growth inhibition effect is equal to or greater than 70%, and less than 90%). For the same compound, the “ECHDG #1 herbicidal effect (growth inhibition grade)” value in assay [2] is listed as 5 (Growth inhibition effect is equal to or greater than 90%, or complete withering is achieved). Moreover, the “CYMIC #1 herbicidal effect (growth inhibition grade)” value in the assay on Cyperus microiria is recorded as 5 (Growth inhibition effect is equal to or greater than 90%, or complete withering is achieved). Moreover, in the assay on Monochoria vaginalis, the “MONVA #1 herbicidal effect (growth inhibition grade)” value was 5 (Growth inhibition effect is equal to or greater than 90%, or complete withering is achieved).
`COc1ccc(Cl)c(CS(=O)(=O)c2ncc(Cl)s2)c1` [Compound 1C-70]: in the assay with Scirpus juncoides, the “SCIJU #1 herbicidal effect (growth inhibition grade)” value is 5 (Growth inhibition effect is equal to or greater than 90%, or complete withering is achieved). Further, the “ECHDG (2-2.5L) #2 herbicidal effect (growth inhibition grade)” value in assay [1] is 4 (Growth inhibition effect is equal to or greater than 70%, and less than 90%). Moreover, the “ECHDG #1 herbicidal effect (growth inhibition grade)” value in assay [2] is reported as 5 (Growth inhibition effect is equal to or greater than 90%, or complete withering is achieved). In the assay with Cyperus microiria, the “CYMIC #1 herbicidal effect (growth inhibition grade)” value was 5 (Growth inhibition effect is equal to or greater than 90%, or complete withering is achieved). The “MONVA #1 herbicidal effect (growth inhibition grade)” value with Monochoria vaginalis is 5 (Growth inhibition effect is equal to or greater than 90%, or complete withering is achieved).
Turning to `CCOc1c(F)cc(CS(=O)(=O)c2ncc(Cl)s2)cc1Cl` [Compound 1C-105], in the assay with Scirpus juncoides, the “SCIJU #1 herbicidal effect (growth inhibition grade)” value was 5 (Growth inhibition effect is equal to or greater than 90%, or complete withering is achieved). Also, the “ECHDG (2-2.5L) #2 herbicidal effect (growth inhibition grade)” value in assay [1] was 2 (Growth inhibition effect is equal to or greater than 30%, and less than 50%). In addition, the “ECHDG #1 herbicidal effect (growth inhibition grade)” value in assay [2] is recorded as 5 (Growth inhibition effect is equal to or greater than 90%, or complete withering is achieved). For the same compound, the “CYMIC #1 herbicidal effect (growth inhibition grade)” value with Cyperus microiria is 5 (Growth inhibition effect is equal to or greater than 90%, or complete withering is achieved). Further, the “MONVA #1 herbicidal effect (growth inhibition grade)” value with Monochoria vaginalis is reported as 5 (Growth inhibition effect is equal to or greater than 90%, or complete withering is achieved).
`CCOc1c(F)cc(CS(=O)(=O)c2ncc(Cl)s2)cc1F` [Compound 1C-104]: in the assay with Scirpus juncoides, the “SCIJU #1 herbicidal effect (growth inhibition grade)” value is 5 (Growth inhibition effect is equal to or greater than 90%, or complete withering is achieved). Also, the “ECHDG (2-2.5L) #2 herbicidal effect (growth inhibition grade)” value in assay [1] was 1 (Growth inhibition effect is equal to or greater than 10%, and less than 30%). Also, in assay [2], the “ECHDG #1 herbicidal effect (growth inhibition grade)” value is 5 (Growth inhibition effect is equal to or greater than 90%, or complete withering is achieved). In addition, the “CYMIC #1 herbicidal effect (growth inhibition grade)” value in the assay on Cyperus microiria was 5 (Growth inhibition effect is equal to or greater than 90%, or complete withering is achieved). For the same compound, the “MONVA #1 herbicidal effect (growth inhibition grade)” value in the assay with Monochoria vaginalis is given as 5 (Growth inhibition effect is equal to or greater than 90%, or complete withering is achieved).
Turning to `CCOc1cccc(CS(=O)(=O)c2ncc(Cl)s2)c1F` [Compound 1C-75], the “SCIJU #1 herbicidal effect (growth inhibition grade)” value with Scirpus juncoides is recorded as 5 (Growth inhibition effect is equal to or greater than 90%, or complete withering is achieved). Moreover, the “ECHDG (2-2.5L) #2 herbicidal effect (growth inhibition grade)” value in assay [1] was 4 (Growth inhibition effect is equal to or greater than 70%, and less than 90%). Also, the “ECHDG #1 herbicidal effect (growth inhibition grade)” value in assay [2] is listed as 5 (Growth inhibition effect is equal to or greater than 90%, or complete withering is achieved). Besides, the “CYMIC #1 herbicidal effect (growth inhibition grade)” value with Cyperus microiria is 5 (Growth inhibition effect is equal to or greater than 90%, or complete withering is achieved). The “MONVA #1 herbicidal effect (growth inhibition grade)” value in the assay with Monochoria vaginalis is on record as 5 (Growth inhibition effect is equal to or greater than 90%, or complete withering is achieved).
